Assays:
Type in all cases: in vivo, human
[1] = tested on: people who had fluid retention before menstruation; test: Administration test of γ-tocopherol alone, VAS questionnaire; settings: 360 mg/day γ-tocopherol, 7 days, 25 people, placebo-controlled double-blind
Method: (§1) Twenty-five people who had fluid retention before menstruation were subjected to randomly-assigned placebo-controlled double-blind tested group comparative study. […] An evaluation period is between the morning of the 6th day after the start of the continuous ingestion and the morning of the 8th day […]. Evaluation by questionnaires was conducted before every meal. An average value of variations from a start value of the evaluation was obtained to compare the tested group with the placebo group.
(§2) The evaluation by questionnaires was conducted by VAS (visual analog scale) and MDQ (menstrual distress questionnaire).
(§3) For VAS, the subjects indicated their symptoms about each questionnaire on a scale of “0 mm” (no symptom) to “100 mm” (the symptom is very strong/the symptom affects daily living), and an average value of variations from a start value of the evaluation was calculated. For MDQ, the subjects answered each questionnaire on a six-point scale of “0” (no symptom) to “5” (the symptom is very strong/the symptom affects daily living).

[2] = tested on: people who had fluid retention before menstruation; test: Administration test of γ-tocopherol alone, MDQ questionnaire; settings: 360 mg/day γ-tocopherol, 7 days, 25 people
Method: as §1, §2, §3

[3] = tested on: people who had any unpleasant symptom before menstruation; test: Combined administration test of γ-tocopherol and equol, MDQ questionnaire; settings: suggested by the results of Test Example 1 and Test Example 2; equol alone not administered

| Structure (SMILES) | VAS "annoyance or irritability" (mental unpleasant symptoms) as compared with a placebo group [1] | VAS leg swelling (physical unpleasant symptoms) as compared with a placebo group [1] | proportion of people who had decreased MDQ scores as compared with the placebo group, "change in behavior" [2] | proportion of people who had decreased MDQ scores as compared with the placebo group, item "concentration ability" [2] | proportion of people who had decreased MDQ scores as compared with the placebo group, item "fluid retention" [2] | proportion of people who had decreased MDQ scores as compared with the placebo group, item "negative emotion" [2] | proportion of people who had decreased MDQ scores as compared with the placebo group, item "pain" [2] | effects of equol alone on "pain", "negative emotion", "concentration ability" and "change in behavior" [3] |
| --- | --- | --- | --- | --- | --- | --- | --- | --- |
| Cc1c(O)cc2c(c1C)O[C@](C)(CCC[C@H](C)CCC[C@H](C)CCCC(C)C)CC2 [γ-tocopherol] | significant amelioration | significant amelioration | 32.0% | 36.0% | 56.0% | 28.0% | 44.0% | – |
| Oc1ccc(C2COc3cc(O)ccc3C2)cc1 (centres unmarked) [equol] | – | – | – | – | – | – | – | has effects |

— patent US20210361616A1, “AMELIORATING AGENT FOR FEMALE-SPECIFIC PHYSICAL AND/OR MENTAL UNPLEASANT SYMPTOM” (OTSUKA PHARMACEUTICAL CO., LTD., priority 2016, published 2021)
